pKd: −log10 of the molar value.
Columns and labels:
[1] = molecular target: T1, CDK9 (Homo sapiens, UniProt P50750); assay: KdELECT binding assay, CDK9; conditions: CDK9, Table 7
T1 construct: made in house; host or cells: E. coli BL21-derived host (T7 phage) or HEK-293 ('BEK-293' [sic])
Summary of the method: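 Phage-tagged or HEK-derived DNA-tagged kinases competed 1 h at room temperature against bead-immobilised biotinylated ligand in SeaBlock/PBS/Tween/DTT buffer, 0.9% DMSO final. Bound kinase eluted with 0.5 μM free ligand and quantified by qPCR; Kd from 11-point 3-fold dilution series.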

[2] = test system: T-Rex 293 cell line SC cells having increased expression of progesterone receptor isoform B protein; assay: Cellular growth inhibition, T-Rex 293 SC cells with doxycycline (increased progesterone receptor isoform B expression); format: cell-based; conditions: with 10 ng/mL doxycycline (increased progesterone receptor isoform B), 72 hours, CellTiter-Glo 2.0
Experimental: (§1) The following types of cells were prepared for this experiment: (i) a T-Rex 293 cell line having increased expression of progesterone receptor isoform B protein due to exposure to doxycycline and (ii) a T-Rex 293 cell line lacking increased expression of progesterone receptor isoform B protein. Ability of the test compounds to inhibit proliferation of the foregoing cell types was evaluated according to the procedures set forth below.
(§2) The doxycycline-inducible progesterone receptor isoform B protein expressing cell line was established using the following protocol: T-Rex 293 cells were purchased from Invitrogen (Cat #R71007) and transfected using Lipofectamine 2000 with the wild-type progesterone receptor B protein sequence cloned into the pcDNA4/TO vector. Transfected cells were selected using 400 μg/mL Zeocin (Invitrogen Cat #R25001). Following selection, single clones were raised and maintained in Dulbecco's Modified Eagle Medium (DMEM) supplemented with 10% w/w Tetracycline-free fetal bovine serum (FBS) and 250 μg/mL Zeocin. Clones were analyzed for expression of progesterone receptor isoform B protein in the presence and absence of 10 ng/mL doxycycline (Sigma Cat #D9891), and a single doxycycline-inducible clone (hereinafter “SC”) was selected for use in downstream assays.
(§3) The SC cells were seeded on poly-D-lysine coated, black clear-bottom 384-well plates at 2500/well, in 25 μL Phenol Red Free Dulbecco's Modified Eagle Medium (DMEM) supplemented with 10% w/w charcoal-dextran treated fetal bovine serum (FBS) and 1% w/w pen-strep, with or without 10 ng/mL doxycycline. Pen-Strep is a commercially available mixture of penicillin G and streptomycin, which is used in mammalian cell culture media to prevent bacterial contamination. Phenol Red Free Dulbecco's Modified Eagle Medium (DMEM) supplemented with 10% w/w charcoal-dextran treated fetal bovine serum (FBS) and 1% w/w pen-strep, with or without 10 ng/mL doxycycline is herein referred to as Treatment Medium. Following seeding of cells in the plates, the plates were spun at 300×g for 30 seconds, then equilibrated to room temperature for 30 minutes, and then deposited in a humidified tissue culture incubator maintained at 37° C. with 5% CO2.
(§4) At 24 hours after seeding of the cells, dilutions of test compound were prepared in DMSO and dissolved in Treatment Medium, to achieve a final DMSO concentration of 0.5% w/w, thereby providing the Test Compound Solution. A 25 μL aliquot of the Test Compound Solution was added to cells in the well plates. An equal volume of a solution containing DMSO and Treatment Medium was used as a negative control. Following treatment of cells with Test Compound Solution or said equal volume of a solution containing DMSO and Treatment Medium, the plates were spun at 300×g for 30 seconds, and then left in an incubator for 72 hours.
(§5) At the end of the treatment duration, cell viability was quantified with CellTiter-Glo 2.0 reagent (Promega Cat #G9243). For this purpose, plates were equilibrated to room temperature for 30 minutes, and then 25 μL of CellTiter-Glo 2.0 reagent was added to cells in the plate wells. Plates were then agitated on a shaker for two minutes at 500 rpm and subsequently incubated at room temperature for 10 minutes. Following incubation, the plates were spun at 3000×g for 30 seconds, then sealed with an optical adhesive cover, and luminescence readings were measured with an EnVision Plate Reader (Perkin Elmer).
(§6) Data was normalized using zero luminescence for baseline. A four-parameter non-linear regression curve fit was applied to dose-response data in GraphPad Prism data analysis software to determine the half-maximal growth inhibitory concentration (GI50) for each test compound.

[3] = test system: T-Rex 293 cell line SC cells lacking increased expression of progesterone receptor isoform B protein; assay: Cellular growth inhibition, T-Rex 293 SC cells without doxycycline; format: cell-based; conditions: not exposed to doxycycline, 72 hours, CellTiter-Glo 2.0
Experimental: as §1, §2, §3, §4, §5, §6

T1 sequence (P50750 whole entry): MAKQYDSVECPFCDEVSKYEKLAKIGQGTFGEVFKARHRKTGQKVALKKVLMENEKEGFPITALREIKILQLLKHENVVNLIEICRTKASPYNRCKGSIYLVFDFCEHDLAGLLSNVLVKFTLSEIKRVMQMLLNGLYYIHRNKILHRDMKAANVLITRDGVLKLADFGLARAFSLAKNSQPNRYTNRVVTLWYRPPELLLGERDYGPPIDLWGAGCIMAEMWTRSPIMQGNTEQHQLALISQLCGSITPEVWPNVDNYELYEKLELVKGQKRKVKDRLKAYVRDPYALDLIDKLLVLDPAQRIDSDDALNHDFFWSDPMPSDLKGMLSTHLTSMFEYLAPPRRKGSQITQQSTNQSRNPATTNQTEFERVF

pKd [1] | Structure (SMILES) | GI50 [2] [nM] | GI50 [3] [nM]
5.60 to 6.30 | CCc1cnn2c(NCc3ccc(OCCOCCOCCOCCOCCOC4CCN(c5ncc(C(=O)N[C@H]6C(C)(C)[C@H](Oc7ccc(C#N)c(Cl)c7)C6(C)C)cn5)CC4)nc3)cc(N3CCCC[C@H]3CCO)nc12 [Compound I-9] | – | –
6.30 to 7.30 | CCc1cnn2c(NCc3ccc(OCCN(C)c4ncc(C(=O)N[C@H]5C(C)(C)[C@H](Oc6ccc(C#N)c(Cl)c6)C5(C)C)cn4)nc3)cc(N3CCCC[C@H]3CCO)nc12 [Compound I-1] | – | –
5.60 to 6.30 | CC1(C)[C@H](NC(=O)c2cnc(N3CCC(CN4CCN(CCN5C/C=C/CCOc6cccc(c6)-c6ccnc(n6)Nc6cccc(c6)C5)CC4)CC3)nc2)C(C)(C)[C@H]1Oc1ccc(C#N)c(Cl)c1 [Compound I-94] | 500 to 1500 | > 3000
> 7.30 | CC(C)n1cc(-c2ccnc3[nH]c(C4CCN(CCN5CCN(CC6CCN(c7ncc(C(=O)NC8C(C)(C)C(Oc9ccc(C#N)c(Cl)c9)C8(C)C)cn7)CC6)CC5)CC4)cc23)ccc1=O (stereo not drawn) [Compound I-74, N-[3-(3-chloro-4-cyano-phenoxy)-2,2,4,4-tetramethyl-cyclobutyl]-2-[4-[[4-[2-[4-[4-(1-isopropyl-6-oxo-3-pyridyl)-1H-pyrrolo [2,3-b]pyridin-2-yl]-1-piperidyl]ethyl]piperazin-1-yl]methyl]-1-piperidyl]pyrimidine-5-carboxamide] | < 500 | < 500
– | CCc1cnn2c(NCc3ccc(OCCCN4CCN(CC5CCN(c6ccc(C(=O)N[C@H]7C(C)(C)[C@H](Oc8ccc(C#N)c(Cl)c8)C7(C)C)cn6)CC5)CC4)nc3)cc(N3CCCC[C@@H]3CCO)nc12 [Compound I-55, N-((1r,3r)-3-(3-chloro-4-cyanophenoxy)-2,2,4,4-tetramethylcyclobutyl)-6-(4-((4-(3-((5-(((3-ethyl-5-((R)-2-(2-hydroxyethyl)piperidin-1-yl)pyrazolo[1,5-a]pyrimidin-7-yl)amino)methyl)pyridin-2-yl)oxy)propyl)piperazin-1-yl)methyl)piperidin-1-yl)nicotinamide] | < 500 | < 500
> 7.30 | CCc1cnn2c(NCc3ccc(OC4CCN(CC5CCN(c6ncc(C(=O)N[C@H]7C(C)(C)[C@H](Oc8ccc(C#N)c(Cl)c8)C7(C)C)cn6)CC5)CC4)nc3)cc(N3CCCC[C@H]3CCO)nc12 [Compound I-46] | < 500 | < 500
6.30 to 7.30 | CCc1cnn2c(NCc3ccc(OCCOCCOCCOC4CCN(c5ncc(C(=O)N[C@H]6C(C)(C)[C@H](Oc7ccc(C#N)c(Cl)c7)C6(C)C)cn5)CC4)nc3)cc(N3CCCC[C@H]3CCO)nc12 [Compound I-8] | < 500 | < 500
– | CCc1cnn2c(NCc3ccc(OCCCN4CCN(CC5CCN(c6ccc(C(=O)N[C@H]7C(C)(C)[C@H](Oc8ccc(C#N)c(Cl)c8)C7(C)C)cc6)CC5)CC4)nc3)cc(N3CCCC[C@@H]3CCO)nc12 [II-1, N-((1r,3r)-3-(3-chloro-4-cyanophenoxy)-2,2,4,4-tetramethylcyclobutyl)-4-(4-((4-(3-((5-(((3-ethyl-5-((R)-2-(2-hydroxyethyl)piperidin-1-yl)pyrazolo[1,5-a]pyrimidin-7-yl)amino)methyl)pyridin-2-yl)oxy)propyl)piperazin-1-yl)methyl)piperidin-1-yl)benzamide] | < 500 | < 500
– | CCc1cnn2c(NCc3ccc(OCCOCCOCCOCCOCCOCCOCCN(C)c4ncc(C(=O)N[C@H]5C(C)(C)[C@H](Oc6ccc(C#N)c(Cl)c6)C5(C)C)cn4)nc3)cc(N3CCCC[C@H]3CCO)nc12 [Compound I-5] | < 500 | 500 to 1500
6.30 to 7.30 | Cc1ncc(-c2nc(Nc3ccc(C(=O)N4CC[C@H](N(C)CCOCCOCCOC5CCN(c6ncc(C(=O)N[C@H]7C(C)(C)[C@H](Oc8ccc(C#N)c(Cl)c8)C7(C)C)cn6)CC5)C4)cc3)ncc2F)n1C(C)C [Compound I-96] | 1500 to 3000 | 1500 to 3000
> 7.30 | CCc1cnn2c(NCc3ccc(COCCN4CCN(CC5CCN(c6ncc(C(=O)N[C@H]7C(C)(C)[C@H](Oc8ccc(C#N)c(Cl)c8)C7(C)C)cn6)CC5)CC4)nc3)cc(N3CCCC[C@H]3CCO)nc12 [Compound I-42] | < 500 | < 500
– | CCc1cnn2c(NCc3ccc(N4CCC(N5CCN(C6CN(c7ncc(C(=O)N[C@H]8C(C)(C)[C@H](Oc9ccc(C#N)c(Cl)c9)C8(C)C)cn7)C6)CC5)CC4)nc3)cc(N3CCCC[C@H]3CCO)nc12 [Compound I-86] | < 500 | < 500
5.60 to 6.30 | CCc1cnn2c(NCc3ccc(OCCOC4CCN(c5ncc(C(=O)N[C@H]6C(C)(C)[C@H](Oc7ccc(C#N)c(Cl)c7)C6(C)C)cn5)CC4)nc3)cc(N3CCCC[C@H]3CCO)nc12 [Compound I-7, N-((1r,3r)-3-(3-chloro-4-cyanophenoxy)-2,2,4,4-tetramethylcyclobutyl)-2-(4-(2-((5-(((3-ethyl-5-((S)-2-(2-hydroxyethyl)piperidin-1-yl)pyrazolo[1,5-a]pyrimidin-7-yl)amino)methyl)pyridin-2-yl)oxy)ethoxy)piperidin-1-yl)pyrimidine-5-carboxamide] | < 500 | < 500
> 7.30 | CCc1cnn2c(NCc3ccc(OCCOCC4CCN(CC5CCN(c6ncc(C(=O)N[C@H]7C(C)(C)[C@H](Oc8ccc(C#N)c(Cl)c8)C7(C)C)cn6)CC5)CC4)nc3)cc(N3CCCC[C@H]3CCO)nc12 [Compound I-45] | – | –
6.30 to 7.30 | CCc1cnn2c(NCc3ccc(OCCOCCOCCOCCOCCN(C)c4ncc(C(=O)N[C@H]5C(C)(C)[C@H](Oc6ccc(C#N)c(Cl)c6)C5(C)C)cn4)nc3)cc(N3CCCC[C@H]3CCO)nc12 [Compound I-3] | < 500 | < 500
< 5.60 | CCc1cnn2c(NCc3ccc(OCCN4CCN(CC5CCN(c6ncc(C(=O)N[C@H]7C(C)(C)[C@H](Oc8ccc(C#N)c(Cl)c8)C7(C)C)cn6)CC5)CC4)nc3)cc(-c3ccccc3)nc12 [Compound I-47, N-((1r,3r)-3-(3-chloro-4-cyanophenoxy)-2,2,4,4-tetramethylcyclobutyl)-2-(4-((4-(2-((5-(((3-ethyl-5-phenylpyrazolo[1,5-a]pyrimidin-7-yl)amino)methyl)pyridin-2-yl)oxy)ethyl)piperazin-1-yl)methyl)piperidin-1-yl)pyrimidine-5-carboxamide] | – | –
5.60 to 6.30 | CCc1cnn2c(NCc3ccc(OCCCCOCCOC4CCN(c5ncc(C(=O)N[C@H]6C(C)(C)[C@H](Oc7ccc(C#N)c(Cl)c7)C6(C)C)cn5)CC4)nc3)cc(N3CCCC[C@H]3CCO)nc12 [Compound I-34] | – | –
– | CCc1cnn2c(NCc3ccc(=O)n(CCOCCOCCOCCOCCOCCOCCN(C)c4ncc(C(=O)N[C@H]5C(C)(C)[C@H](Oc6ccc(C#N)c(Cl)c6)C5(C)C)cn4)c3)cc(N3CCCC[C@H]3CCO)nc12 [Compound I-4, N-((1r,3r)-3-(3-chloro-4-cyanophenoxy)-2,2,4,4-tetramethylcyclobutyl)-2-((20-(5-(((3-ethyl-5-((S)-2-(2-hydroxyethyl)piperidin-1-yl)pyrazolo[1,5-a]pyrimidin-7-yl)amino)methyl)-2-oxopyridin-1(2H)-yl)-3,6,9,12,15,18-hexaoxaicosyl)(methyl)amino)pyrimidine-5-carboxamide] | < 500 | < 500

Reference: patent US20260159520A1, “HETEROBIFUNCTIONAL COMPOUNDS AND METHODS OF TREATING DISEASE” (Halda Therapeutics OpCo, Inc., priority 2022, published 2026)
